We go through 1 substance from patent publication EP1028725B1, “USE OF VASOPRESSIN ANTAGONISTS FOR TREATING DISTURBANCES OR ILLNESSES OF THE INNER EAR” (Otogene Aktiengesellschaft, priority 1997, dated 2004).

This test has as its system Menschlicher Saccus endolymphaticus. Description: Light-microscopic autoradiography of 125I-arginine-vasopressin binding on frozen tissue sections. On the set-up: species or system menschlich. The conditions noted are these: overnight at 4 °C; unspecific binding checked with 10 µM unlabelled Arginin-Vasopressin. Here is the method:
Menschlicher Saccus endolymphaticus wurde von sechs Autopsien und zwei operierten Patienten mit Einwilligung der Verwandten bzw. der Patienten erhalten. Gefrorene Schnitte (20 µm) wurden auf einem Kryostaten bei -16 °C geschnitten, auf Gelatine-beschichtete Plättchen aufgebracht und über Nacht unter Vakuum bei 4 °C gelagert. […] Die radiomarkierten Schnitte wurden mit NTB-2 Nuklearemulsion (Eastman Kodak) beschichtet und für die lichtmikroskopische Autoradiographie präpariert. Die beschichteten Plättchen wurden in der Dunkelheit bei 4 °C für drei bis acht Tage gelagert. Nach Entwickeln und Fixieren wurden die Plättchen mit Haematoxylin/Eosin gefärbt.

Take “^125I-Arginin-Vasopressin [radioaktivem Vasopressin]”: the “Bindung im Epithel des endolymphatischen Sacks” value is recorded as “spezifische Bindung”.
